Test results: patent US7695899B2, “Methods of identifying and using chemotherapeutic agents” (The Regents of the University of Colorado, a body corporate, priority 2003, dated 2010)

Test system: irradiated grp mutant larvae
Experiment: Survival screen of irradiated and non-irradiated grp mutant and wild-type larvae
Assay type: in vivo, Drosophila melanogaster
Conditions: colchicine 1.3 μM in cornmeal-agar food; 4,000 Rads of X-rays; cumulative results of three screens; FIG. 1
Procedure: To obtain correctly aged larvae, embryos are collected at Day 0 from wild-type and grp mutant heterozygous adults for approximately 4 hours in the late afternoon or early evening 4 days prior to experiment. The embryos are allowed to hatch into larvae and the larvae are allowed to develop. The grp mutant heterozygote adults carry a grp mutation on one chromosome and a wild-type grp gene on a balancer chromosome. The balancer chromosome also carries a Green Fluorescent Protein (GFP) transgene.
In the morning of Day 4, food is washed from larvae by using stacked sieves (VWR; USA Standard Testing Sieve: 850, 600, 425, 180 micrometer). […]
At Day 9, the total number of pupae formed are counted (this gives the percentage of larvae that survived into pupae). In the vials with progeny from grp heterozygous parents, the grp heterozygous pupae and the wild-type pupae are identified by virtue of their expression of GFP and are not counted. At Day 14, the number of empty pupae are counted (indicating the number of pupae that eclosed into adults).
Survival is expressed as the percentage of larvae that form pupae, and the percentage of pupae that eclose into adults. […]

COc1cc2c(c(OC)c1OC)-c1ccc(OC)c(=O)cc1[C@@H](NC(C)=O)CC2 [colchicine]
survival of irradiated grp mutant larvae (grp+R) relative to non-irradiated grp mutant larvae (grp-R), wild-type irradiated larvae (SEV+R) and wild-type non-irradiated larvae (SEV-R): selectively reduces the survival
